Structures are written as SMILES. In brackets after ≈: the same amount, converted by molar mass. Like-named read-outs stand apart in the source and are kept apart here.

One assay addresses T1, xanthine oxidase (Bos taurus, UniProt P80457).
T1 construct: purchased Sigma-Aldrich (St. Louis, MO, USA); host or cells: bovine milk
The experiment in a line: Xanthine oxidase inhibition assay. Format: biochemical.

Assay [1] has as its system Candida krusei (ATCC 6258). The experiment in a line: Antifungal activity, Candida krusei. Format: cell-based. The conditions noted are these: Pichia kudriavzevii, ATCC6258. The procedure: (§1) Three yeast strains (Candida albicans (ATCC 10231), Candida krusei (ATCC 6258), and Cryptococcus neoformans (CECT1078)) and filamentous fungi (one Aspergillus fumigatus (ATCC 204305) and three dermatophytes (Trichophyton rubrum (FF5), Nannizzia gypsea (formerly Microsporum gypseum-FF3) and Epidermophyton floccosum (FF9)) were used in this work. Sub-cultures were prepared in Sabouraud Dextrose Agar medium (SDA) from 1–2 days (yeasts and Aspergillus) to 5–7 days (dermatophytes) to ensure optimal growth conditions and purity.
(§2) Fungal organisms were cultured in SDA and then suspended in RPMI-1640 broth. Serial dilutions of the onion skin extract solutions, prepared from a stock solution (8 mg/mL in DMSO), were prepared in RPMI-1640 broth, starting at a concentration of 4 mg/mL. Sample dilutions and cell suspensions were distributed into 96 well plates and incubated under aerobic, humid conditions at 26 °C for dermatophytes and 36 °C for the other organisms. Incubation times were 5 to 7 days for dermatophytes, 72 h for C. neoformans, and 48 h for the remaining organisms. […] In cases where MIC was determined, 20 μL from wells without visible growth were cultured on SDA plates, incubating under the same conditions previously described for each organism. The Minimal Fungicidal Concentration (MFC) was then determined as the lowest concentration where complete no growth was observed on the SDA plates. All the experiments were conducted in triplicate.

The target of another assay is T2, acetylcholinesterase (Electrophorus electricus, UniProt O42275).
T2 construct: purchased Sigma-Aldrich (St. Louis, MO, USA)
T2 sequence (O42275 24-633): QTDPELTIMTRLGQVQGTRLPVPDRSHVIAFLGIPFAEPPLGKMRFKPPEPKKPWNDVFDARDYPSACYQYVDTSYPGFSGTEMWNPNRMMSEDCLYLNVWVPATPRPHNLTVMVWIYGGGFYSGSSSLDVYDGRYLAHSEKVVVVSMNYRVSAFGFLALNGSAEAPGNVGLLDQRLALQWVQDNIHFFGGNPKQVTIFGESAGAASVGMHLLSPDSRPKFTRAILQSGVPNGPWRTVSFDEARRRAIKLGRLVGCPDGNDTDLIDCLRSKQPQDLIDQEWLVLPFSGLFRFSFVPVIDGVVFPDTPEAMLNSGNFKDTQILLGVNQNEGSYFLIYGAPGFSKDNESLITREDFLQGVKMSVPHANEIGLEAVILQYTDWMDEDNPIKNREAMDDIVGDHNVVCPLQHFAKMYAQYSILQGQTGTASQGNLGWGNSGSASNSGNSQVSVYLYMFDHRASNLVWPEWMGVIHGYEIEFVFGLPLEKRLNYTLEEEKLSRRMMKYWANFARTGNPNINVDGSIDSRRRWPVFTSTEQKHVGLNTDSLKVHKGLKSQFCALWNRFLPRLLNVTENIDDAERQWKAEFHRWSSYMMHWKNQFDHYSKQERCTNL
The experiment in a line: Acetylcholinesterase (AChE) inhibition assay. Format: biochemical.

Assay [2] concerns Nannizzia gypsea (formerly Microsporum gypseum-FF3). The experiment in a line: Antifungal activity, Nannizzia gypsea. Format: cell-based. On the procedure: as §1, §2
Assay [3] can be described thus: Nitric oxide radical scavenging activity. Format: biochemical. On the procedure:
The capacity of the onion skin extracts to scavenge the nitric oxide (^●NO) radical was assessed using the method described by [Ferreres et al. (2021)]. This involved mixing 100 μL of the extract solutions, diluted in 0.1 M phosphate buffer (pH 7.4), with the same volume of 20 mM sodium nitroprusside dihydrate. After a 60 min incubation under light, the Griess reagent (100 μL) was added, followed by 10 min incubation in the dark, and absorbance was measured at 560 nm. Quercetin was used as positive control. At least five different concentrations were tested for each onion skin extract, with a minimum of three independent experiments conducted in triplicate. A control was prepared replacing sample with buffer, and a blank with phosphoric acid instead of the Griess reagent.

Assay [4] relates to Trichophyton rubrum (FF5). The experiment in a line: Antifungal activity, Trichophyton rubrum. Format: cell-based. The procedure:
as §1, §2

Details of assay [5]: method as in Li et al., 2011. The conditions noted are these: ref Li et al., 2011; cited from earlier work.
On the set-up of assay [6]: method as in Li et al., 2011. The conditions noted are these: ref Li et al., 2011; cited from earlier work. This is another data set of the same source.
Assay [7] is described as follows: Superoxide anion radical scavenging activity. Format: biochemical. On the procedure:
The ability of the onion skin extracts to scavenge the superoxide anion (O2^●-) radical was determined according to [Ferreres et al. (2021)]. Equal volumes (50 μL) of the extract solutions, diluted in 19 mM phosphate buffer (pH 7.4), and 0.166 mM NADH, and three volumes of 0.043 mM nitrotetrazolium blue chloride were combined. The reaction was initiated by adding 50 μL of 2.7 μM phenazine methosulfate, and absorbance was recorded at 560 nm. A control was prepared substituting sample with buffer.

The subject of assay [8] is Epidermophyton floccosum (FF9). The experiment in a line: Antifungal activity, Epidermophyton floccosum. Format: cell-based. On the procedure:
as §1, §2

The conditions of assay [9]: ref Yuting et al., 1990; cited from earlier work.
The next assay addresses T3, α-glucosidase (Saccharomyces cerevisiae, UniProt P53341).
T3 construct: purchased Sigma-Aldrich (St. Louis, MO, USA)
The experiment in a line: α-Glucosidase activity assay (pure enzyme). Format: biochemical.

On the set-up of assay [10]: method as in Li et al., 2011. The conditions noted are these: ref Li et al., 2011; cited from earlier work. The source holds these as a separate data set.
In assay [11] the test system is Cryptococcus neoformans (CECT1078). The experiment in a line: Antifungal activity, Cryptococcus neoformans. Format: cell-based. The procedure:
as §1, §2

Assay [12] relates to Candida albicans (ATCC 10231). The experiment in a line: Antifungal activity, Candida albicans. Format: cell-based. On the procedure: as §1, §2
The target of a further assay is T4, 5-LOX (lipoxygenase) (Glycine max, UniProt P08170).
T4 construct: purchased Sigma-Aldrich (St. Louis, MO, USA)
T4 sequence (P08170 whole entry): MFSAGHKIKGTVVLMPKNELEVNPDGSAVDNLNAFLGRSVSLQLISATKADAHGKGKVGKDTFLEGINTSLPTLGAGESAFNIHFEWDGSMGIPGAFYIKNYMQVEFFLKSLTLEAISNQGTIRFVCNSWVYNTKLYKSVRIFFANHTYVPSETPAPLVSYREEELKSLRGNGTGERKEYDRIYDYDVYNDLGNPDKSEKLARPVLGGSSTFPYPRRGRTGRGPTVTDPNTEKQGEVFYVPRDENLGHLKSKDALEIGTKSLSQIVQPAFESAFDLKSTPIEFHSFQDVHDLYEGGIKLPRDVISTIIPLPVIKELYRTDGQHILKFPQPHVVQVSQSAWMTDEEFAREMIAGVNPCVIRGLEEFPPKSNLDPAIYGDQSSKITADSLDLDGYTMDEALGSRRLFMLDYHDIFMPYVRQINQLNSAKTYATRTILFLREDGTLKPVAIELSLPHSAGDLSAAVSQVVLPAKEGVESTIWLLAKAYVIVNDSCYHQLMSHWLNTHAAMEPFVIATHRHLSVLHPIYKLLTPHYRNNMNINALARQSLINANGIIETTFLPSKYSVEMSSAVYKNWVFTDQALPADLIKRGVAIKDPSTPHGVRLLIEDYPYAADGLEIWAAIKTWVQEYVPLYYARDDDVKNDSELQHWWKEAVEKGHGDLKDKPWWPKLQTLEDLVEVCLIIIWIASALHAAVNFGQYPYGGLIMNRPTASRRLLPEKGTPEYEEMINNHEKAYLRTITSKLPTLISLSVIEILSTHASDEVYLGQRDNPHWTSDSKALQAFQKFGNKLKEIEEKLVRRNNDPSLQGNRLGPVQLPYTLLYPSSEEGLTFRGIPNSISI
The experiment in a line: Lipoxygenase (5-LOX) activity assay. Format: biochemical, Glycine max (soybean).

For assay [13], the system named is Aspergillus fumigatus (ATCC 204305). The experiment in a line: Antifungal activity, Aspergillus fumigatus. Format: cell-based. On the procedure:
as §1, §2

In assay [14] the test system is NO production in LPS-induced BV-2 cells. The arrangement: method as in Sun et al., 2015. The conditions noted are these: ref Sun et al., 2015; cited from earlier work.
Setting [15] is: 100 % growth inhibition, read-out: MIC.

T1 sequence (P80457 whole entry): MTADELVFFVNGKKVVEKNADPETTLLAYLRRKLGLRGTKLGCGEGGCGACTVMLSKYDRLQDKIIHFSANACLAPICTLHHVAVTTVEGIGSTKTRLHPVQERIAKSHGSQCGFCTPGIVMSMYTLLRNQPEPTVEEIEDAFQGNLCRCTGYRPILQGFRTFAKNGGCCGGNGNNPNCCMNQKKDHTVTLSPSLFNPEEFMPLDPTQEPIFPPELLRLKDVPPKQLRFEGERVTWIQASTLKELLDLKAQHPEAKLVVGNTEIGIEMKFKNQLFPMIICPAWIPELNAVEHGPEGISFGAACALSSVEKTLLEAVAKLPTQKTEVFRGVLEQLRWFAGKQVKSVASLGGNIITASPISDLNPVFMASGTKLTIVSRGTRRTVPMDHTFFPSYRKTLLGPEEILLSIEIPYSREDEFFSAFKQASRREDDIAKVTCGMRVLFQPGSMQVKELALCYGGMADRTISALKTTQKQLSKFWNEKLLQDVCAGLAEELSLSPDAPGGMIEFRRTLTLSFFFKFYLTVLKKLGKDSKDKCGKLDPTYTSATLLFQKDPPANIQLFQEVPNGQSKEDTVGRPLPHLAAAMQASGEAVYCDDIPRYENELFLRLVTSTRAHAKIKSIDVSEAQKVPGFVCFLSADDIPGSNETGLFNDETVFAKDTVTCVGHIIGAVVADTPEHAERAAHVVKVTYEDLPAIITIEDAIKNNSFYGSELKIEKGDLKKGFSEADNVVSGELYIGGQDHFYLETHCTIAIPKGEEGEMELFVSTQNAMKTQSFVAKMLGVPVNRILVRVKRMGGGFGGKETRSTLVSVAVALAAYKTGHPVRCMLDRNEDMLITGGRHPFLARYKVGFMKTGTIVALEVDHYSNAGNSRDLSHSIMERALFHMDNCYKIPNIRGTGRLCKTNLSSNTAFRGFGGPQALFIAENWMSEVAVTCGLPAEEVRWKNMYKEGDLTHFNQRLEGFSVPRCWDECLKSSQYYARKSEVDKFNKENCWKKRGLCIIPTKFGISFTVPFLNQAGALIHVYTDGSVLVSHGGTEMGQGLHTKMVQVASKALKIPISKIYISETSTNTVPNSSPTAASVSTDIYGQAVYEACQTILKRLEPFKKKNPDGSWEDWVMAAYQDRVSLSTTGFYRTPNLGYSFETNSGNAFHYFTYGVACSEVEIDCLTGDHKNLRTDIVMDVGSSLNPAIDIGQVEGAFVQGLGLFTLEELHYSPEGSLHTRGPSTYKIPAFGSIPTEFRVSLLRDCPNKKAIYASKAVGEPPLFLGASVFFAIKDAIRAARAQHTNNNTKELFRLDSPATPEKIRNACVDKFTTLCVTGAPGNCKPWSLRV
T3 sequence (P53341 whole entry): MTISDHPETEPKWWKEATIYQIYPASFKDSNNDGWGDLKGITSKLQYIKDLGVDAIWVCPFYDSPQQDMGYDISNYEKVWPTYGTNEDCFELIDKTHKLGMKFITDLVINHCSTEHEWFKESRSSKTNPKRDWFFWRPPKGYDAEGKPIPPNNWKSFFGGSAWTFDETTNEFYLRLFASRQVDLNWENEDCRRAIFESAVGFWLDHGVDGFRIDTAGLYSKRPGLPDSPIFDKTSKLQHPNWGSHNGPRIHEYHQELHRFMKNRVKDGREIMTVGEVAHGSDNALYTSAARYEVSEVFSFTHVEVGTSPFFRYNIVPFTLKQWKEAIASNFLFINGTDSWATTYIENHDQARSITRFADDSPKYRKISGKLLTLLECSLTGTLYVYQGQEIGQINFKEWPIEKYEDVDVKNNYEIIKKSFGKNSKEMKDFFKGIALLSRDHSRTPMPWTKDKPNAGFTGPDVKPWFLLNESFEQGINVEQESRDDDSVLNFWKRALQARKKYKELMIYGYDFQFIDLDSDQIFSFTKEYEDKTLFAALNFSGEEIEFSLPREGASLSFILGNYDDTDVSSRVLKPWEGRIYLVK
Experimental for 5-LOX (lipoxygenase): The ability of the extracts and pure compounds to inhibit 5-LOX activity was assessed by measuring their capacity to prevent linoleic oxidation. In short, 200 μL of the extract solutions, diluted in 100 mM phosphate buffer (pH 9.0), was mixed with 20 μL of the enzyme solution and 20 μL of 4.18 mM linoleic acid prepared in ethanol, and the absorbance at 234 nm was measured. A control was prepared with buffer instead of sample ([Trigueros, Oliveira, et al., 2024]).
Experimental for acetylcholinesterase: Acetylcholinesterase activity was assessed combining 75 μL of the extract solutions, prepared in 50 mM Tris-HCl buffer (pH 8.0), plus 0.1 % (w/v) albumin, with 25 μL of 15 mM ATCI and 125 μL of 3 mM DTNB. The formation of 5-thio-2-nitrobenzoate was monitored at 405 nm ([Trigueros, Oliveira, et al., 2024]).
Experimental for xanthine oxidase: Xanthine oxidase activity was determined using a previously established method by monitoring the conversion of xanthine to uric acid ([Trigueros, Oliveira, et al., 2024]). 200 μL of the extract solutions, diluted in 5 mM phosphate buffer (pH 7.4), was mixed with 10 μL of xanthine oxidase solution, incubated for 5 min at 37 °C, followed by the addition of 40 μL of 1.25 mM xanthine solution, and absorbance was measured at 295 nm. A control assay was prepared with buffer.
Experimental for α-glucosidase: Enzymes for in vitro enzymatic assays were aldose-reductase (Homo sapiens, human) from Prozomix (UK), α-amylase (porcine pancreas), α-glucosidase (Saccharomyces cerevisiae), acetylcholinesterase from Electrophorus electricus, lipoxygenase from Glycine max (soybean), tyrosinase from mushroom, xanthine oxidase from bovine milk, all provided by Sigma-Aldrich (St. Louis, MO, USA).
α-Glucosidase activity was evaluated incubating 180 μL of a mixture of the extract solutions, prepared in 10 mM potassium phosphate buffer (pH 7.0), and 20 μL of the enzyme solution at 37 °C for 2 min. Absorbance at 405 nm was measured after adding 100 μL of 2.5 mM 4-nitrophenyl-α-D-glucopyranoside, and after 10 min incubation.

`O=C(O)c1ccc(O)c(O)c1` [Protocatechuic acid]: the IC50 was 908 µM against xanthine oxidase, 2760 µM at α-glucosidase and 247 µM at 5-LOX (lipoxygenase). The minimum fungicidal concentration (MFC) in [1] was more than 4000 µg/mL; in assay [2] it was more than 4000 µg/mL; in assay [4], 2000 µg/mL (≈ 13 mM); in assay [8], 2000 µg/mL (≈ 13 mM); in assay [11] (CECT1078), 2000 µg/mL (≈ 13 mM); in assay [12] (ATCC10231) it was more than 4000 µg/mL. In addition, in assay [13] (ATCC204305), the minimal fungicidal concentration (MFC) was more than 4000 µg/mL. Also, the MIC in [1] was more than 4000 µg/mL; in assay [2], more than 4000 µg/mL; in [4], 2000 µg/mL (≈ 13 mM); in [4] (read-out: MIC, 90 % growth inhibition) it was 1000 µg/mL (≈ 6.49 mM); in [8] it was 500 µg/mL (≈ 3.24 mM); in assay [11] (CECT1078, read-out: MIC, ≥ 95 % growth inhibition), 1000 µg/mL (≈ 6.49 mM). In addition, the minimal inhibitory concentration (MIC) in assay [12] (ATCC10231) and in assay [13] (ATCC204305) was more than 4000 µg/mL in each case. Besides, the “IC25, AChE” value at acetylcholinesterase is 1809 ± 31 µg/mL (≈ 11.7 mM). The “IC25, ●NO scavenging” value in assay [3] came out at 237 ± 16 µg/mL (≈ 1.54 mM). For the same molecule, the “●NO scavenging activity” value in assay [3] (at the maximum tested concentration (1.33 mg/mL)) is recorded as “below 40%”. Also, the “IC50, hydroxyl radicals” value in assay [5] was 74 µg/mL (≈ 0.48 mM). Besides, the “IC50, DPPH” value in assay [6] is 1.88 µg/mL (≈ 0.0122 mM). In addition, the “IC50, O2●- scavenging” value in assay [7] is 252 ± 8 µg/mL (≈ 1.64 mM); in assay [9], 310 µg/mL (≈ 2.01 mM). In addition, the “IC50, ABTS” value in assay [10] was 0.89 µg/mL (≈ 0.00577 mM).
For the molecule `O=c1c(O)c(-c2ccc(O)c(O)c2)oc2cc(O)cc(O)c12` [Quercetin], the MIC in assay [1] (Candida krusei, 100 % growth inhibition, read-out: MIC) is not below 4000 µg/mL; in assay [2] (setting [15]), more than 4000 µg/mL; in [4] (setting [15]) it was 1000 µg/mL (≈ 3.31 mM); in [8] (setting [15]), 500 µg/mL (≈ 1.65 mM); in [11] (CECT1078, 100 % growth inhibition, read-out: MIC), 1000 µg/mL (≈ 3.31 mM); in assay [11] (CECT1078, read-out: MIC, 90 % growth inhibition, 90 %), 750 µg/mL (≈ 2.48 mM). The minimal inhibitory concentration (MIC) is more than 4000 µg/mL in assay [12] (ATCC10231, 100 % growth inhibition, read-out: MIC) and more than 4000 µg/mL in assay [13] (ATCC204305, 100 % growth inhibition, read-out: MIC). For the same molecule, the minimal fungicidal concentration (MFC) is more than 4000 µg/mL in [1] (Candida krusei, read-out: MFC); more than 4000 µg/mL in assay [2] (read-out: MFC); 1000 µg/mL (≈ 3.31 mM) in [4] (read-out: MFC); 1000 µg/mL (≈ 3.31 mM) in assay [8] (read-out: MFC); 2000 µg/mL (≈ 6.62 mM) in assay [11] (CECT1078, read-out: MFC); more than 4000 µg/mL in assay [12] (ATCC10231, read-out: MFC). In addition, the minimal fungicidal concentration (MFC) in [13] (ATCC204305, read-out: MFC) is more than 4000 µg/mL. Also, the “IC50, ●NO scavenging” value in [3] was determined as 49 ± 2 µg/mL (≈ 0.162 mM). In addition, the “IC50, O2●- scavenging” value in assay [7] worked out at 22.4 ± 1.1 µg/mL (≈ 0.0741 mM). Moreover, in assay [14], the “concentrations effectively reducing NO production” value was “above 5 μM”.

The IC50 is the concentration at which inhibition is half-maximal. Read a low IC50 as inhibition by little substance. The term MFC denotes the lowest tested concentration that kills the fungus rather than only halting it. The term MIC denotes the least concentration at which growth counts as inhibited.

(Values after publication PMC12320693, “Non-edible onion skin waste as a source of bioactive agents for functional foods development: Chemical composition and multifunctional bioactivity” (Food Chemistry: X, 2025).)
